For the assay, the target named is IGF1-receptor (Homo sapiens, UniProt P08069). Nature of the assay: IGF1-Receptor Tyrosine Kinase Assay. The assay is classed as biochemical. The following applies: ATP 25 μM; FL-peptide 1.5 μM; IGF1-Receptor 14 nM; 60 min room temperature; read-out: IGF-1R IC50. The protocol: D. IGF1-Receptor Tyrosine Kinase Assay
The assays were performed in U-bottom 384-well plates. The final assay volume was 30 μl prepared from 15 μl additions of enzyme and substrates (fluoresceinated IGF1R substrate peptide and ATP) and test compounds in assay buffer (100 mM HEPES pH 7.4, 10 mM MnCl2, 0.015% Brij35 and 4 mM DTT). The reaction was initiated by the combination of IGF1-receptor with substrates and test compounds. The reaction was incubated at room temperature for 60 min. and terminated by adding 30 μl of 35 mM EDTA to each sample. The reaction mixture was analyzed on the Caliper LabChip 3000 by electrophoretic separation of the fluorescent substrate and phosphorylated product. Inhibition data were calculated by comparison to no enzyme control reactions for 100% inhibition and vehicle-only reactions for 0% inhibition. The final concentration of reagents in the assays is ATP, 25 μM; FL-peptide, 1.5 μM; IGF1-Receptor, 14 nM; and DMSO, 1.6%. Dose response curves were generated to determine the concentration required to inhibit 50% of kinase activity (IC50). Compounds were dissolved at 10 mM in dimethylsulfoxide (DMSO) and evaluated at eleven concentrations, each in duplicate. IC50 values were derived by non-linear regression analysis.

Where a name gives a salt, the structure may show the parent alone.

IGF1-receptor, sequence (P08069 31-1367): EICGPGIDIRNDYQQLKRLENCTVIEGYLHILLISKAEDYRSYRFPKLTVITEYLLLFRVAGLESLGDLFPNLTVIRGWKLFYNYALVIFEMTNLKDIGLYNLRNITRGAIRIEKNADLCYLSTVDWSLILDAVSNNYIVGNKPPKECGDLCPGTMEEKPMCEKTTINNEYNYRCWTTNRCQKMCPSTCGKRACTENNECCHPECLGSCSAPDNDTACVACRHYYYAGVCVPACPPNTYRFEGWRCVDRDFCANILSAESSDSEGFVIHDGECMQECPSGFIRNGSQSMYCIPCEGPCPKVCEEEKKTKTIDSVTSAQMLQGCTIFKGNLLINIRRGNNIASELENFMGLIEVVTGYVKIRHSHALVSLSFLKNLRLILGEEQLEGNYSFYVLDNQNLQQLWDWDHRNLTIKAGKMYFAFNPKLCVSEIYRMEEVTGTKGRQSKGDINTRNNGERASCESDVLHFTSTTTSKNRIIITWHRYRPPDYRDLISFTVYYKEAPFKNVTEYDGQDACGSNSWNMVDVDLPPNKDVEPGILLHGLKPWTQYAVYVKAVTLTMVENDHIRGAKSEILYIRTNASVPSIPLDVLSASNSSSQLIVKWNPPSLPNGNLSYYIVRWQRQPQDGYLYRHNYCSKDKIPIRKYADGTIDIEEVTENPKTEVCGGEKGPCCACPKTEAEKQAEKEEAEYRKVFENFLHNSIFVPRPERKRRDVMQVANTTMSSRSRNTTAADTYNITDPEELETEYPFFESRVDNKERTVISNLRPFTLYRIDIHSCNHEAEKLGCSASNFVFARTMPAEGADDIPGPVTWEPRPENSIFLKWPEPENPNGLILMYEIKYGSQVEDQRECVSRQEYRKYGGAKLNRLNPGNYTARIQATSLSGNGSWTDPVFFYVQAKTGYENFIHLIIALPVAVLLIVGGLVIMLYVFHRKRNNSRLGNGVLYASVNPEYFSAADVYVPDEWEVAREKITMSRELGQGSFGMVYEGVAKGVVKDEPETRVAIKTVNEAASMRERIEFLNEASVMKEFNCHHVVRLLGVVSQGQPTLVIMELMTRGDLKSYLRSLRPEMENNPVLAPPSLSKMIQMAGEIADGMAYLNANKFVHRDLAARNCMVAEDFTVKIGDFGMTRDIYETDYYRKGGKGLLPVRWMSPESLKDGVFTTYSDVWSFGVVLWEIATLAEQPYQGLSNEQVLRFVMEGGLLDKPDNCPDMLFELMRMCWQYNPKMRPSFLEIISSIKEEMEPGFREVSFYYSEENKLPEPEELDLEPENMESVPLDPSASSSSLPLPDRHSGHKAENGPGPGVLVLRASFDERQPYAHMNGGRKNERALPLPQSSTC

A word on the IC50: it is the concentration needed to halve the response being measured. For the compound `CCCC(O)(CNC(=O)c1nccc(Sc2cnc(Nc3ccc(CNC(=O)CN(C)C)cn3)s2)c1F)c1ccccc1` (stereo not drawn) [Example 77, 4-(2-(5-((2-(Dimethylamino)acetamido)methyl)pyridin-2-ylamino)thiazol-5-ylthio)-3-fluoro-N-(2-hydroxy-2-phenylpentyl)picolinamide], the IC50 was determined as 0.004 µM.

Turning to `O=C(NCCc1c[nH]c2ccc(O)cc12)c1nccc(Sc2cnc(Nc3ccccn3)s2)c1F` [Example 33, 3-Fluoro-N-(2-(5-hydroxy-1H-indol-3-yl)ethyl)-4-(2-(pyridin-2-ylamino)thiazol-5-ylthio)picolinamide], the IC50 amounted to 0.693 µM.

For `Cc1ccnc(Nc2ncc(Sc3ccnc(C(=O)NCC(c4ccccc4)c4ccccc4CO)c3F)s2)c1` (stereo not drawn) [Example 65, 3-Fluoro-N-(2-(2-(hydroxymethyl)phenyl)-2-phenylethyl)-4-(2-(4-methylpyridin-2-ylamino)thiazol-5-ylthio)picolinamide], the IC50 is 0.001 µM.

Turning to `O=C(NCC(c1ccccc1)c1ccccc1CO)c1nccc(Sc2cnc(Nc3ccccn3)s2)c1F` (stereo not drawn) [Example 63, 3-Fluoro-N-(2-(2-(hydroxymethyl)phenyl)-2-phenylethyl)-4-(2-(pyridin-2-ylamino)thiazol-5-ylthio)picolinamide], the half-maximal inhibitory concentration (IC50) is 0.25 µM.

On to `CCCC(O)(CNC(=O)c1nccc(Sc2cnc(Nc3ccc(CNC)cn3)s2)c1F)c1ccccc1` (stereo not drawn) [Example 82, 3-Fluoro-N-(2-hydroxy-2-phenylpentyl)-4-(2-(5-((methylamino)methyl)pyridin-2-ylamino)thiazol-5-ylthio)picolinamide], for which the IC50 worked out at 0.003 µM. For `CC(C)(C)CNCC(CNC(=O)c1nccc(Sc2cnc(Nc3ccccn3)s2)c1F)(c1ccccc1)c1ccccc1` [Example 36, 3-Fluoro-N-(3-(neopentylamino)-2,2-diphenylpropyl)-4-(2-(pyridin-2-ylamino)thiazol-5-ylthio)picolinamide], the IC50 turned out to be 2.95 µM. Under “(S)-3-Fluoro-N-(2-(2-(hydroxymethyl)phenyl)-2-phenylethyl)-4-(2-(pyridin-2-ylamino)thiazol-5-ylthio)picolinamide and (R)-3-fluoro-N-(2-(2-(hydroxymethyl)phenyl)-2-phenylethyl)-4-(2-(pyridin-2-ylamino)thiazol-5-ylthio)picolinamide [Example 64]” stands 0.316 µM. As to `CCC[C@@](O)(CNC(=O)c1nccc(Sc2cnc(Nc3nccc4sccc34)s2)c1F)c1ccccc1` [Example 83, (S)-3-fluoro-N-(2-hydroxy-2-phenylpentyl)-4-(2-(thieno[3,2-c]pyridin-4-ylamino)thiazol-5-ylthio)picolinamide], the IC50 was 0.394 µM. As for `Cc1ccnc(Nc2ncc(Sc3ccnc(C(=O)NCC(CNC(C)(C)C)(c4ccccc4)c4ccccc4)c3F)s2)c1` [Example 55, N-(3-(tert-butylamino)-2,2-diphenylpropyl)-3-fluoro-4-(2-(4-methylpyridin-2-ylamino)thiazol-5-ylthio)picolinamide], the figure is 0.199 µM; as for `Cc1ccnc(Nc2ncc(Sc3ccnc(C(=O)NCC(CN(C)CCO)(c4ccccc4)c4ccccc4)c3F)s2)c1` [Example 52, 3-Fluoro-N-(3-((2-hydroxyethyl)(methyl)amino)-2,2-diphenylpropyl)-4-(2-(4-methylpyridin-2-ylamino)thiazol-5-ylthio)picolinamide], 0.003 µM. Turning to `Cc1ccnc(Nc2ncc(Sc3ccnc(C(=O)NCC(CN4CCCCC4)(c4ccccc4)c4ccccc4)c3F)s2)c1` [Example 49, N-(2,2-diphenyl-3-(piperidin-1-yl)propyl)-3-fluoro-4-(2-(4-methylpyridin-2-ylamino)thiazol-5-ylthio)picolinamide], the IC50 amounted to 0.886 µM.

On to `Cc1ccnc(Nc2ncc(Sc3ccnc(C(=O)NCC(c4ccccc4)c4cccc(CO)c4)c3F)s2)c1` (stereo not drawn) [Example 67, 3-Fluoro-N-(2-(3-(hydroxymethyl)phenyl)-2-phenylethyl)-4-(2-(4-methylpyridin-2-ylamino)thiazol-5-ylthio)picolinamide hydrochloride], for which the IC50 stood at 0.288 µM.

Turning to `Cc1ccnc(Nc2ncc(Sc3ccnc(C(=O)NCC(c4ccccc4)c4ccccc4Br)c3F)s2)c1` (stereo not drawn) [Example 58, N-(2-(2-bromophenyl)-2-phenylethyl)-3-fluoro-4-(2-(4-methylpyridin-2-ylamino)thiazol-5-ylthio)picolinamide], the IC50 worked out at 1.52 µM. For `Cc1ccnc(Nc2ncc(Sc3ccnc(C(=O)NCC(c4ccccc4)c4ccccc4C)c3F)s2)c1` (stereo not drawn) [Example 56, 3-fluoro-4-(2-(4-methylpyridin-2-ylamino)thiazol-5-ylthio)-N-(2-phenyl-2-o-tolylethyl)picolinamide], the IC50 stood at 0.891 µM.

For the compound `CCNCC(CNC(=O)c1nccc(Sc2cnc(Nc3cc(C)ccn3)s2)c1F)(c1ccccc1)c1ccccc1` [Example 69, N-(3-(ethylamino)-2,2-diphenylpropyl)-3-fluoro-4-(2-(4-methylpyridin-2-ylamino)thiazol-5-ylthio)picolinamide], the IC50 came to 0.005 µM.

The values are drawn from patent US8148400B2, “Thiazolyl compounds useful as kinase inhibitors” (Bristol-Myers Squibb Company, priority 2006, dated 2012).
